The values below come from ChEMBL document CHEMBL1201862, “PubChem BioAssay data set” (2004).

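Briefly, cells in 96-well plates were exposed to five compound concentrations for 48 h, and endpoints were estimated by linear interpolation. Abbreviation: GI50, concentration required for 50% inhibition of growth.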 Activity calls are given as the source filed them. Cut-off read from the data, not from the text of the source: active = GI50 up to about 1.1 µM and inactive = higher.

Some test systems named below: ACHN; CAKI-1; HCT-116; HOP-62; HOP-92; KM12; LOX IMVI; MOLT-4; Malme-3M; NCI-H522; OVCAR-5; OVCAR-8; PC-3; RXF 393; SK-OV-3; T47D; TK-10; UO-31; K562; UACC-257.
Test in all cases: DTP human tumour cell line panel, 48 h

The term GI50 denotes the concentration that inhibits growth by half. Regarding `CSc1nc(SC)c2c(C)c(Br)[nH]c2n1`, the GI50 in the experiment with ACHN, in the experiment with CAKI-1, in the experiment with HCT-116, in the experiment on HOP-62, in the experiment on HOP-92 and in the experiment with KM12 was > 100 µM (inactive) in each case. For the same compound, the GI50 in the experiment on LOX IMVI, in the experiment on MOLT-4, with Malme-3M, with NCI-H522, with OVCAR-5 and in the experiment with OVCAR-8 was > 100 µM (inactive) throughout. Moreover, the GI50 in the experiment on PC-3, in the experiment with RXF 393, in the experiment with SK-OV-3, in the experiment on T47D, with TK-10 and with UO-31 was > 100 µM (inactive) in each case.

For the compound `CN(C)CCNC(=O)Cn1ccc(=O)c2cc([N+](=O)[O-])ccc21`, the GI50 with ACHN, with CAKI-1, in the experiment with HCT-116, with HOP-62, with HOP-92 and in the experiment on K562 was > 100 µM (inactive) in each case. In addition, the GI50 with KM12, in the experiment on LOX IMVI, in the experiment on MOLT-4, in the experiment with Malme-3M, with NCI-H522 and in the experiment with OVCAR-5 was > 100 µM (inactive) in each case. In addition, the GI50 with PC-3, in the experiment on RXF 393, with SK-OV-3, with T47D, with TK-10 and with UACC-257 was > 100 µM (inactive) throughout. Besides, the GI50 in the experiment with UO-31 is > 100 µM (inactive).

Regarding `COc1cc(/C=C2\NC(=O)N(/C=C3\C(=O)Oc4ccccc4C3=O)C2=O)ccc1O`, the GI50 is > 100 µM (inactive) in the experiment on ACHN; 59.8 µM (inactive) in the experiment on CAKI-1; > 100 µM (inactive) with HCT-116; 61.2 µM (inactive) with HOP-62; > 100 µM (inactive) in the experiment with HOP-92; > 100 µM (inactive) with K562. Besides, the GI50 was 54.1 µM (inactive) with KM12; 49.5 µM (inactive) in the experiment on LOX IMVI; 36.2 µM (inactive) in the experiment with MOLT-4; 29.2 µM (inactive) with NCI-H522; > 100 µM (inactive) in the experiment with OVCAR-5; 56 µM (inactive) in the experiment with OVCAR-8. The GI50 with PC-3 was 64 µM (inactive); in the experiment with RXF 393, 25.1 µM (inactive); in the experiment on SK-OV-3, 51.1 µM (inactive); in the experiment with T47D, > 100 µM (inactive); with TK-10 it was > 100 µM (inactive); in the experiment with UACC-257, > 100 µM (inactive). In the experiment on UO-31, the GI50 was 44.4 µM (inactive).

With `C/C=C\C(CC(=O)OC)CC(=O)N(CCC1CN(S(=O)(=O)C(F)(F)F)c2ccccc21)Cc1ccc(OC)cc1OC` (stereo not drawn), the GI50 in the experiment with ACHN is > 100 µM (inactive); with CAKI-1, > 100 µM (inactive); in the experiment on HCT-116, 76.2 µM (inactive); in the experiment with HOP-62, > 100 µM (inactive); with HOP-92 it was > 100 µM (inactive); in the experiment with K562 it was 96.6 µM (inactive). The GI50 with KM12 was 45.1 µM (inactive); in the experiment on LOX IMVI it was > 100 µM (inactive); in the experiment on MOLT-4, > 100 µM (inactive); in the experiment with Malme-3M, > 100 µM (inactive); with NCI-H522 it was 57.3 µM (inactive); in the experiment on OVCAR-5, > 100 µM (inactive). For the same compound, the GI50 was 63 µM (inactive) in the experiment on PC-3; > 100 µM (inactive) in the experiment on RXF 393; > 100 µM (inactive) in the experiment with SK-OV-3; > 100 µM (inactive) with T47D; > 100 µM (inactive) with TK-10; > 100 µM (inactive) in the experiment with UACC-257. In the experiment with UO-31, the GI50 was > 100 µM (inactive).

`CC1=NN(c2nc(N)nc(CCl)n2)C(C)(C)C1`: the GI50 in the experiment with ACHN is 10.3 µM (inactive); in the experiment with CAKI-1, 3.15 µM (inactive); with HCT-116, 25.9 µM (inactive); in the experiment with HOP-62, 3.67 µM (inactive); in the experiment on HOP-92, 17.9 µM (inactive); in the experiment on K562, 27.2 µM (inactive). For the same compound, the GI50 in the experiment on KM12 is 19.3 µM (inactive); in the experiment with LOX IMVI, 1.78 µM (inactive); in the experiment on MOLT-4 it was 19.5 µM (inactive); in the experiment with NCI-H522 it was 1.39 µM (inactive); in the experiment with OVCAR-5, 32 µM (inactive); in the experiment on OVCAR-8, 23.9 µM (inactive). Besides, the GI50 was 40.8 µM (inactive) with PC-3; > 56.8 µM (inactive) with RXF 393; > 56 µM (inactive) with SK-OV-3; 45.6 µM (inactive) with T47D; > 71.6 µM (inactive) with TK-10; 51.9 µM (inactive) in the experiment with UACC-257. For the same compound, in the experiment with UO-31, the GI50 was 9.02 µM (inactive).

Consider `Cc1occc1C(=S)Nc1ccc(Cl)c(C(=O)OC(C)C2CC2)c1` (stereo not drawn), for which the GI50 in the experiment on ACHN was 17.3 µM (inactive); in the experiment with CAKI-1, 18.7 µM (inactive); in the experiment on HCT-116 it was 26.5 µM (inactive); in the experiment with HOP-62, 17.8 µM (inactive); in the experiment on HOP-92 it was 23.5 µM (inactive); in the experiment with KM12 it was 16.3 µM (inactive). Further, the GI50 with LOX IMVI was 19.4 µM (inactive); in the experiment on MOLT-4 it was 17.4 µM (inactive); in the experiment on Malme-3M it was 16.4 µM (inactive); in the experiment on NCI-H522, 14.4 µM (inactive); in the experiment with OVCAR-5, 23.4 µM (inactive); in the experiment on OVCAR-8, 18.3 µM (inactive). The GI50 with PC-3 is 18.9 µM (inactive); with RXF 393, 20.4 µM (inactive); in the experiment on SK-OV-3 it was 21.6 µM (inactive); in the experiment on T47D, 19.1 µM (inactive); in the experiment with TK-10, 37.5 µM (inactive); in the experiment with UACC-257 it was 30.3 µM (inactive). The GI50 with UO-31 was 14.7 µM (inactive).

Consider `CN(C)CCCSc1nc2c(c(=N)n1-c1ccccc1)c(=S)n(-c1ccccc1)c(=S)n2-c1ccccc1`, for which the GI50 is 1.82 µM (inactive) in the experiment with ACHN; 1.77 µM (inactive) with CAKI-1; 1.98 µM (inactive) in the experiment on HCT-116; 1.8 µM (inactive) in the experiment with HOP-62; 1.8 µM (inactive) in the experiment on HOP-92; 0.459 µM (active) in the experiment with K562. In addition, the GI50 with KM12 was 1.83 µM (inactive); with LOX IMVI it was 1.29 µM (inactive); in the experiment on MOLT-4, 0.789 µM (active); with Malme-3M, 2.04 µM (inactive); in the experiment on NCI-H522 it was 1.69 µM (inactive); with OVCAR-5, 11.3 µM (inactive). The GI50 in the experiment with OVCAR-8 is 1.77 µM (inactive); with PC-3, 1.75 µM (inactive); in the experiment on RXF 393, 1.57 µM (inactive); in the experiment on SK-OV-3, 2.65 µM (inactive); in the experiment with T47D, 2.01 µM (inactive); with TK-10, 1.71 µM (inactive). Moreover, the GI50 in the experiment with UACC-257 is 1.77 µM (inactive).

As for `N/C(COc1ccc(Cl)cc1)=N\NC(=O)c1ccncc1`, the GI50 is > 100 µM (inactive) in the experiment on ACHN; > 100 µM (inactive) in the experiment with CAKI-1; > 100 µM (inactive) in the experiment with HCT-116; > 100 µM (inactive) with HOP-62; 58.9 µM (inactive) with HOP-92; > 100 µM (inactive) with K562. Also, the GI50 in the experiment on KM12 is > 100 µM (inactive); with LOX IMVI it was 38.4 µM (inactive); with MOLT-4 it was > 100 µM (inactive); in the experiment on Malme-3M it was > 100 µM (inactive); in the experiment with NCI-H522, > 100 µM (inactive); in the experiment on OVCAR-5, > 100 µM (inactive). In addition, the GI50 with OVCAR-8 was > 100 µM (inactive); in the experiment with PC-3, > 100 µM (inactive); with RXF 393, 35.9 µM (inactive); with SK-OV-3, > 100 µM (inactive); with T47D it was 62.4 µM (inactive); in the experiment with TK-10 it was > 100 µM (inactive). Further, in the experiment on UACC-257, the GI50 was 72.4 µM (inactive).

With `NS(=O)(=O)c1c(O)c2ccccc2oc1=O`, the GI50 with ACHN, in the experiment on CAKI-1, in the experiment with HCT-116, in the experiment with HOP-62, in the experiment with HOP-92 and with K562 was > 100 µM (inactive) each time. In addition, the GI50 in the experiment with KM12, in the experiment on LOX IMVI, in the experiment on MOLT-4, with Malme-3M, with NCI-H522 and with OVCAR-5 was > 100 µM (inactive) in each case. In addition, the GI50 with OVCAR-8, in the experiment on PC-3, in the experiment on RXF 393, in the experiment on T47D, with TK-10 and in the experiment on UACC-257 was > 100 µM (inactive) throughout. The GI50 in the experiment on UO-31 is > 100 µM (inactive).

Turning to `CCC(=O)Nc1ccc(NC(C#N)c2cccc(Oc3ccccc3)c2)cc1` (stereo not drawn), the GI50 in the experiment on ACHN is 32.7 µM (inactive); with CAKI-1, 54.6 µM (inactive); in the experiment on HCT-116 it was 34.5 µM (inactive); with HOP-62, 49.7 µM (inactive); in the experiment on HOP-92, 34.8 µM (inactive); in the experiment with K562, 27.5 µM (inactive). The GI50 in the experiment on KM12 was 58.6 µM (inactive); with LOX IMVI, 21.4 µM (inactive); in the experiment with MOLT-4, 4.29 µM (inactive); in the experiment on Malme-3M, 26.1 µM (inactive); in the experiment on NCI-H522 it was 48 µM (inactive); in the experiment on OVCAR-5, > 100 µM (inactive). Moreover, the GI50 in the experiment with OVCAR-8 was 26.2 µM (inactive); with PC-3, 63.4 µM (inactive); with RXF 393 it was 38.6 µM (inactive); in the experiment with SK-OV-3, > 100 µM (inactive); in the experiment with T47D, 42.3 µM (inactive); with UO-31, 42.2 µM (inactive).
